# Test results: patent US20050215626A1, “Substituted benzofuran oximes” (WYETH, priority 2003, published 2005)
# Biological target: human PAI-1 (Homo sapiens, UniProt P05121)
# Experiment: Assay for determining the IC50 of inhibition of PAI-1 (active PAI-1 bound to tPA-coated plate, antibody detection)
# Type: biochemical
# Conditions: inhibition of Plasminogen Activator Inhibitor-1; test compounds 1-50 μM incubated with human PAI-1 (50 ng/ml), pH 7.5, human tPA-coated plate
# Description: This assay is based upon the non-SDS dissociable interaction between tPA and active PAI-1. Assay plates are initially coated with human tPA (10 μg/ml). Test compounds are dissolved in DMSO at 10 mM, then diluted with physiologic buffer (pH 7.5) to a final concentration of 1-50 μM. The test compounds are incubated with human PAI-1 (50 ng/ml) for 15 minutes at room temperature. The tPA-coated plate is washed with a solution of 0.05% Tween 20 and 0.1% BSA, then the plate is blocked with a solution of 3% BSA. An aliquot of the test compound/PAI-1 solution is then added to the tPA-coated plate, incubated at room temperature for 1 hour, and washed. Active PAI-1 bound to the plate is assessed by adding an aliquot of a 1:1000 dilution of the 33B8 monoclonal antibody against human PAI-1, and incubating the plate at room temperature for 1 hour (Molecular Innovations, Royal Oak, Mich.). The plate is again washed, and a solution of goat anti-mouse IgG-alkaline phosphatase conjugate is added at a 1:50,000 dilution in goat serum. The plate is incubated 30 minutes at room temperature, washed, and a solution of alkaline phosphatase substrate is added. The plate is incubated 45 minutes at room temperature, and color development is determined at OD405 nm. The quantitation of active PAI-1 bound to tPA at varying concentrations of the test compound is used to determine the IC50. Results are analyzed using a logarithmic best-fit equation. The assay sensitivity is 5 ng/mi of human PAI-1 as determined from a standard curve ranging from 0-100 ng/ml.
# Sequence of human PAI-1 (P05121 24-402): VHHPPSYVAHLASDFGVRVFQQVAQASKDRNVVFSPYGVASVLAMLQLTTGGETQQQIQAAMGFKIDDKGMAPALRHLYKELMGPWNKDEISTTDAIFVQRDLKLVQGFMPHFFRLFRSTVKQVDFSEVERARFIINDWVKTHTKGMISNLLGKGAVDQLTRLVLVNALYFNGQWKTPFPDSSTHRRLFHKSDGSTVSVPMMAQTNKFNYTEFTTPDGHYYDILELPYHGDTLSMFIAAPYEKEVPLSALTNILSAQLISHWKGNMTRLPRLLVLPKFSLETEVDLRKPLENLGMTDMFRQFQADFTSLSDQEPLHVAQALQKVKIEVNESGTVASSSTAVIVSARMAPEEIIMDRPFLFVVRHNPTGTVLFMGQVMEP
row,IC50,Structure (SMILES)
1,44.4 µM,"CCCCc1oc2ccccc2c1/C=N/OCCCOc1ccc(C(=O)O)c(NC(=O)c2ccc(C(C)(C)C)cc2)c1 [Compound 1, 4-[3-({[(1E)-(2-butyl-1-benzofuran-3-yl)methylidene]amino}oxy)propoxy]-2-[(4-tert-butylbenzoyl)amino]-benzoic acid]"
2,31.4 µM,"CCCCc1oc2ccccc2c1/C=N/OCCCOc1ccc(CC(=O)O)cc1 [Compound 2, {4-[3-({[(1E)-(2-butyl-1-benzofuran-3-yl)methylidene]amino}oxy)propoxy]phenyl}acetic acid]"
3,19.2 µM,"CCCCc1oc2ccccc2c1/C=N/OCCCOc1ccc(C(=O)O)c(O)c1 [Compound 3, 4-[3({[(1E)-(2-butyl-1-benzofuran-3-yl)methylidene]amino}oxy)propoxy]-2-hydroxybenzoic acid]"
4,24.8 µM,"CCCCc1oc2ccccc2c1/C=N/OCCOc1ccc(C(=O)O)cc1Cl [Compound 4, 4-[2-({[(1E)-(2-butyl-1-benzofuran-3-yl)methylidene]amino]oxy)ethoxy]-3-chlorobenzoic acid]"
5,29.2 µM,"CCCCc1oc2ccccc2c1/C=N/OCc1ccc(C(=O)O)c(Br)c1 [Compound 5, 2-bromo-4-[({[(1E)-(2-butyl-1-benzofuran-3-yl)methylidene]amino}oxy)methyl]benzoic acid]"
6,17.5 µM,"CCCCc1oc2ccccc2c1/C=N/OCCCOc1ccc(C(=O)O)cc1-c1ccc(C(F)(F)F)cc1 [Compound 6, 6-[3-({[(1E)-(2-butyl-1-benzofuran-3-yl)methylidene]amino}oxy)propoxy]-4′-(trifluoromethyl)-1,1′-biphenyl-3-carboxylic acid]"
